According to patent US9650339B2, “Inhibitors of histone demethylases” (Gilead Sciences, Inc., priority 2013, dated 2017):
pIC50: −log10 of the molar value.

Legend:
Type in all cases: biochemical
[1] = target: T1, KDM4C (JMJD2C) (Homo sapiens, UniProt Q9H3R0); experiment: Histone lysine demethylase AlphaLISA assay, KDM4C; conditions: read-out: KDM4C HDME Inhibition IC50
T1 sequence (Q9H3R0 1-349): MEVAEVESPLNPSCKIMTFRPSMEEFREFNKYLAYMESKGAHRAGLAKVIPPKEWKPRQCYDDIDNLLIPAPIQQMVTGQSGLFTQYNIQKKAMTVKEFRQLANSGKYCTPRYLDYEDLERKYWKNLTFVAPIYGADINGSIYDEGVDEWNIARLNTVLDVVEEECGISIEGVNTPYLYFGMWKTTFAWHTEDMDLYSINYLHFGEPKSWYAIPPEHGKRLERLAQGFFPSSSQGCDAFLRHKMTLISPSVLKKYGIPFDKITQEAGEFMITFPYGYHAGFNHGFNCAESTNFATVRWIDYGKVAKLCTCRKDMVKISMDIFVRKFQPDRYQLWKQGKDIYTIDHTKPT
Method in brief: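 Steps: enzyme equilibrated 10 min in buffer; compounds in 3% DMSO solution added, 10 min; substrate mix added (peptide, 25 μM L-Asc, 10 μM α-KG), room temperature; acceptor beads, then streptavidin donor beads, dark incubations; plate read.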

[2] = target: T2, KDM3A (JMJD1A) (Homo sapiens, UniProt Q9Y4C1); experiment: Histone lysine demethylase AlphaLISA assay, KDM3A; conditions: read-out: KDM3 A HDME Inhibition IC50
T2 construct: 2-end; purchased BPS Bioscience, US; host or cells: Bac (baculovirus system)
T2 sequence (Q9Y4C1 2-1321 limits assumed): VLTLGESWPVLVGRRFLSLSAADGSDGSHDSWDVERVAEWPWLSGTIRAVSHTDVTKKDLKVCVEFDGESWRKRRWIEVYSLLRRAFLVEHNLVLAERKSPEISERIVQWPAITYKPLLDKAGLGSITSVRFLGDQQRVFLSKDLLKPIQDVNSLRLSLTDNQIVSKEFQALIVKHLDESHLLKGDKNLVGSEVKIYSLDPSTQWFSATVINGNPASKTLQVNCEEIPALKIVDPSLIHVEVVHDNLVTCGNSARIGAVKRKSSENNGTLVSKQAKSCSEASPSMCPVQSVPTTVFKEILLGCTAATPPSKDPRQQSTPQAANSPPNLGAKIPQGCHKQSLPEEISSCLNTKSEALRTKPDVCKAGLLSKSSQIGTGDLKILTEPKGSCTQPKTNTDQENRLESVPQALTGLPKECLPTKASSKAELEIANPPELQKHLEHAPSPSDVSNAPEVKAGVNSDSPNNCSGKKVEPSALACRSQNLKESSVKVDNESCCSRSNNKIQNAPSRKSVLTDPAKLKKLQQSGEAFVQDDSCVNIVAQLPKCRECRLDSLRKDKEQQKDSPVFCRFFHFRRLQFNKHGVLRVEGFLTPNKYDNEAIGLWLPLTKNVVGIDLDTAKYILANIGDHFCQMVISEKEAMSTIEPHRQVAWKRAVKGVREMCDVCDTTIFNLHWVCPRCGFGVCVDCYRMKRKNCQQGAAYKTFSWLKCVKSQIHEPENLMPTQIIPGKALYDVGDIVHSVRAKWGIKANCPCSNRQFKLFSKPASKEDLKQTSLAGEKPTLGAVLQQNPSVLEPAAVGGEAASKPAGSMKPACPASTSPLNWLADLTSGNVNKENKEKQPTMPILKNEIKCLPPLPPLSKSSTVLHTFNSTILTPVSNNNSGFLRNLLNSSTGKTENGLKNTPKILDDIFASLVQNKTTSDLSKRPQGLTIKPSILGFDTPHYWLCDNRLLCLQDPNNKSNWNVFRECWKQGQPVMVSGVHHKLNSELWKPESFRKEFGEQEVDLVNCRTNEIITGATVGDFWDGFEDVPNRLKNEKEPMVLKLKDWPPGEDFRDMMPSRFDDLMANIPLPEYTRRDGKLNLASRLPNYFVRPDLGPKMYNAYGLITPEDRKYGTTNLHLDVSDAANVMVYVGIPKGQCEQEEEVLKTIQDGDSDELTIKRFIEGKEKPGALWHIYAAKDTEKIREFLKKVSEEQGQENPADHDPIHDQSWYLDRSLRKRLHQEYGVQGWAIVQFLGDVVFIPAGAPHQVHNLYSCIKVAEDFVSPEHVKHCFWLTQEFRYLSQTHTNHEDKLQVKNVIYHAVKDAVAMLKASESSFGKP
Description: (§1) Assays are performed analogously to the protocol described by PerkinElmer (Roy et al. PerkinElmer Technical Note: AlphaLISA #12, April 2011)
(§2) Enzymes are dissolved in enzyme buffer and incubated for 10 min before being added to 3% DMSO solutions of compounds in enzyme buffer. Incubated for another 10 minutes, before substrate solution is added and the reaction mixture is incubated at room temperature. 10 μL acceptor beads, suspended in Epigenetic Buffer (Perkin Elmer AL008) from stock, are added and the suspension is incubated in the dark at room temperature, before a suspension of streptavidin donor beads (Perkin Elmer 6760002) in Epigenetic Buffer is added. After incubation at room temperature in the dark the plates are read. […]
BK9M2: Biotin-ARTKQTAR(KMe2)STGGKAPRKQ-NH2 (AnaSpec 64359) […]
(§3) Substrate Solution: Substrate, 25 μM L-Asc, and 10 μM α-KG in Buffer A.

[3] = target: T3, KDM4A (JMJD2A) (Homo sapiens, UniProt O75164); experiment: Histone lysine demethylase AlphaLISA assay, KDM4A; conditions: read-out: KDM4A HDME Inhibition IC50
T3 construct: 1-350; purchased BPS Bioscience, US; host or cells: E. coli
T3 sequence (O75164 1-350): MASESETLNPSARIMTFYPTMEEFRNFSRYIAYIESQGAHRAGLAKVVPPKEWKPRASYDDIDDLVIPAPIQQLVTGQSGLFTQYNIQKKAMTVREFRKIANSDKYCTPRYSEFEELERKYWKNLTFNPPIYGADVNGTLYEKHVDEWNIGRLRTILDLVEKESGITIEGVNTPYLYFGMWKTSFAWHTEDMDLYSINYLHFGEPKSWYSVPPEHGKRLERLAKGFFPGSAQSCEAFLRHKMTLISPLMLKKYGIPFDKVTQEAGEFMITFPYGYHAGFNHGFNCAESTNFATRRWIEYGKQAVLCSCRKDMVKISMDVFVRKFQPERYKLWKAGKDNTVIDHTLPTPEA
Description: as §1
Enzymes are dissolved in enzyme buffer and incubated for 10 min before being added to 3% DMSO solutions of compounds in enzyme buffer. Incubated for another 10 minutes, before substrate solution is added and the reaction mixture is incubated at room temperature. 10 μL acceptor beads, suspended in Epigenetic Buffer (Perkin Elmer AL008) from stock, are added and the suspension is incubated in the dark at room temperature, before a suspension of streptavidin donor beads (Perkin Elmer 6760002) in Epigenetic Buffer is added. After incubation at room temperature in the dark the plates are read.
BK9M3: Biotin-ARTKQTAR(KMe3)STGGKAPRKQ-NH2 (Caslo, Denmark) […]
as §3

[4] = target: T4, KDM5C (JARID1C) (Homo sapiens, UniProt P41229); experiment: Histone lysine demethylase AlphaLISA assay, KDM5C; conditions: read-out: KDM5C HDME Inhibition IC50
T4 construct: 2-1560; purchased BPS; host or cells: Bac (baculovirus system)
Description: as §1, §2
H3K4M3B: H-ART(Kme3)QTARKSTGGKAPRKQLA-NH-Biotin (Caslo, Denmark) […]
as §3

T4 sequence (P41229 2-1560): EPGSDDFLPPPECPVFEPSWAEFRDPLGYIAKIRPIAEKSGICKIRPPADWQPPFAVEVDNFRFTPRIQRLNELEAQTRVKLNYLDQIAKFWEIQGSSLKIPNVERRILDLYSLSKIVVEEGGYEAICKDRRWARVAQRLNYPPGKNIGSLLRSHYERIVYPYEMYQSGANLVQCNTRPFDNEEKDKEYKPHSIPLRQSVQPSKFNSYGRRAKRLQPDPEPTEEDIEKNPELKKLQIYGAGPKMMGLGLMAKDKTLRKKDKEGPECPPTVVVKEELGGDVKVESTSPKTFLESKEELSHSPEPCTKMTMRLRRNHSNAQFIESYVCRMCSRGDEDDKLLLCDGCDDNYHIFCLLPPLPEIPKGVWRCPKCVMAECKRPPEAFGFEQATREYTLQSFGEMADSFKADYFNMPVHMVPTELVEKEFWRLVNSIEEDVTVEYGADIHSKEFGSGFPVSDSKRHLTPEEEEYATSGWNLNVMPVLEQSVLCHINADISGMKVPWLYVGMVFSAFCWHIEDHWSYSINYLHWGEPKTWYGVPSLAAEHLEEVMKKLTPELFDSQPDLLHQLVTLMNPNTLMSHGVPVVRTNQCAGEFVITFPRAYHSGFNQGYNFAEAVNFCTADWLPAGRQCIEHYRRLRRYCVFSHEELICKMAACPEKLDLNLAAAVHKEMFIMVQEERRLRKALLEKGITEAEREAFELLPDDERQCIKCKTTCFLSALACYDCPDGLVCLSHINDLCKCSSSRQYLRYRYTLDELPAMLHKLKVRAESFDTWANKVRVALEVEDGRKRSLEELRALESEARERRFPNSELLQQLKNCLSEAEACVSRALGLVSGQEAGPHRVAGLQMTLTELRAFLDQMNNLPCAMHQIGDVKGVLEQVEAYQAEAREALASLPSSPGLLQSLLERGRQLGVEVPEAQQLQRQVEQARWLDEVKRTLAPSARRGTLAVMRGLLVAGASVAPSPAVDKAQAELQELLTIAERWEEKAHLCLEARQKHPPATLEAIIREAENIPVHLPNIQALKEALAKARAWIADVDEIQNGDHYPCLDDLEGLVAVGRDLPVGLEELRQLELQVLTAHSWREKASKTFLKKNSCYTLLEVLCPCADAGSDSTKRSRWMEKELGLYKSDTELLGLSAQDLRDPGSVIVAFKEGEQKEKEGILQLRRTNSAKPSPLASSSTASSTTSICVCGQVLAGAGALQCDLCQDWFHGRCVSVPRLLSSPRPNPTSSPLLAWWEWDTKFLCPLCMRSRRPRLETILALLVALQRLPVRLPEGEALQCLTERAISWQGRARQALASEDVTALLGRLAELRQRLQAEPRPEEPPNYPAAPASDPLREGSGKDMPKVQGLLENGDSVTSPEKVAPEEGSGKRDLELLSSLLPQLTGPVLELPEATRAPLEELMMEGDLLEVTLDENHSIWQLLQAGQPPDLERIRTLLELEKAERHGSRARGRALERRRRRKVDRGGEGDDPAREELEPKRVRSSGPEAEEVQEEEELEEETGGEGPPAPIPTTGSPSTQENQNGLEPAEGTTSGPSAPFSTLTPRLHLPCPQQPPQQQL

pIC50 [1]	pIC50 [2]	pIC50 [3]	pIC50 [4]	Structure (SMILES)
< 5.60	–	–	–	OCC/N=C/c1ccnc(CNCCc2ccccc2OCc2ccccc2)c1 [Compound 93, 2-[({2-[({2-[2-(benzyloxy)phenyl]-ethyl}amino)methyl]-pyridin-4-yl}methylidene)-amino]ethan-1-ol]
< 5.60	< 5.60	< 5.60	–	CC1CCCCN1CCCNCc1cc(CNC2CC2)ccn1 (stereo not shown) [Compound 11, N-{[2-({[3-(2-methylpiperidin-1-yl)propyl]amino}methyl)-pyridin-4-yl]methyl}-cyclopropanamine]
5.60 to 6.60	–	> 6.60	–	CN(CCCNCc1cc(/C=N/C2CC2)ccn1)Cc1ccccc1 [Compound 41, N-({2-[({3-[benzyl(methyl)amino]-propyl}amino)methyl]-pyridin-4-yl}methylidene)-cyclopropanamine]
> 6.60	–	> 6.60	> 6.60	CN(C)C(=O)CNCc1cc(/C=N\C2CC2)ccn1 [Compound 33]
< 5.60	< 5.60	–	> 6.60	O=Cc1ccnc(CNCCCN2CCCC2)c1 [Compound 111, 2-({[3-(pyrrolidin-1-yl)propyl]amino}-methyl)pyridine-4-carbaldehyde]
5.60 to 6.60	–	–	–	CCN(CCN(C)C)C(=O)CNCc1cc(C2OCC(Cc3ccccc3)CN2C(=O)C(F)(F)F)ccn1 (stereo not shown) [Compound 90, 2-[({4-[5-benzyl-3-(trifluoroacetyl)-1,3-oxazinan-2-yl]pyridin-2-yl}methyl)amino]-N-[2-(dimethylamino)-ethyl]-N-ethylacetamide]
< 5.60	< 5.60	< 5.60	–	NCc1ccnc(CNCCCCN2CCC2)c1 [Compound 7, [2-({[4-(azetidin-1-yl)butyl]amino}methyl)-pyridin-4-yl]-methanamine]
5.60 to 6.60	–	–	–	CCN(CCC#N)C(=O)CNCc1cc(/C=N/CCO)ccn1 [Compound 94, N-(2-cyanoethyl)-N-ethyl-2-[({4-[[(2-hydroxyethyl)imino]-methyl]pyridin-2-yl}methyl)amino]-acetamide]
< 5.60	–	–	–	CN(Cc1ccccc1F)C(=O)CNCc1cc(/C=N/CCO)ccn1 [Compound 92, N-[(2-fluorophenyl)methyl]-2-[({4-[[(2-hydroxyethyl)imino]-methyl]pyridin-2-yl}methyl)amino]-N-methylacetamide]
< 5.60	–	–	–	CC(C)C[C@H](NCc1cc(/C=N/CCO)ccn1)C(=O)N1CCCCC1 [Compound 95, (2S)-2-[({4-[[(2-hydroxyethyl)imino]-methyl]pyridin-2-yl}methyl)amino]-4-methyl-1-(piperidin-1-yl)pentan-1-one]
< 5.60	–	< 5.60	< 5.60	CN(C)C(=O)CNCc1cc(CNCC#N)ccn1 [Compound 13, 2-{[(4-{[(cyanomethyl)amino]-methyl}pyridin-2-yl)methyl]amino}-N,N-dimethylacetamide]
< 5.60	< 5.60	< 5.60	–	CCN(CC)C(=O)CNCc1cc(C=O)ccn1 [Compound 105, N,N-diethyl-2-{[(4-formylpyridin-2-yl)methyl]amino}-acetamide]
> 6.60	–	< 5.60	> 6.60	CCN(CCN(C)C)C(=O)CNCc1cc(/C=N/CCC2CCCCC2)ccn1 [Compound 63, 2-[({4-[[(2-cydohexylethyl)-imino]methyl]pyridin-2-yl}methyl)amino]-N-[2-(dimethylamino)-ethyl]-N-ethylacetamide]
< 5.60	< 5.60	< 5.60	–	CCN(CC)CCCCNCc1cc(CN)ccn1 [Compound 5, [2-({[4-(diethylamino)butyl]-amino}methyl)pyridin-4-yl]methanamine]
< 5.60	–	–	–	CN(CC(=O)N1CCCCC1)Cc1cc(C=O)ccn1 [Compound 120, 2-({methyl[2-oxo-2-(piperidin-1-yl)ethyl]amino}-methyl)pyridine-4-carbaldehyde]
< 5.60	< 5.60	< 5.60	–	CN(C)CC1CCC(CNCc2cc(C=O)ccn2)CC1 (stereo not shown) [Compound 97, 2-{[({4-[(dimethylamino)-methyl]cyclohexyl}-methyl)amino]-methyl}pyridine-4-carbaldehyde]
5.60 to 6.60	–	–	–	CCN(CCN(C)C)C(=O)CNCc1cc(C2OCC3(CC3)CN2C(=O)C(F)(F)F)ccn1 (stereo not shown) [Compound 91, N-[2--(dimethylamino)-ethyl]-N-ethyl-2-[({4-[7-(trifluoroacetyl)-5-oxa-7-azaspiro[2.5]-octan-6-yl]pyridin-2-yl}methyl)amino]-acetamide]
< 5.60	–	> 6.60	> 6.60	CN(C)CCCNCc1cc(CN)ccn1 [Compound 3, [2-({[3-(dimethylamino)propyl]-amino}methyl)pyridin-4-yl]methanamine]
< 5.60	< 5.60	< 5.60	–	CN(C)CCCCNCc1cc(CNC2CC2)ccn1 [Compound 10, N-{[2-({[4-(dimethylamino)butyl]-amino}methyl)pyridin-4-yl]methyl}-cyclopropanamine]
> 6.60	–	–	–	CCN(CC(C)(C)N(C)C)C(=O)CNCc1cc(C=O)ccn1 [Compound 118, N-[2-(dimethylamino)-2-methylpropyl]-N-ethyl-2-{[(4-formylpyridin-2-yl)methyl]amino}-acetamide]
